“Also recorded” adds a separate entry of the source. Read-outs that look alike come from different tables or passages of the source. Where a SMILES comes first, the peptide text is derived from it. The star is where a group is joined. Cbz = O=C(OCc1ccccc1)*
Key:
[1] = tested on: Akt, MAPK, GSK3-β, snail, slug, KLF4 in SK-BR-3 cells; test: Western blot of erbB downstream signaling and Snail/Slug, SK-BR-3; format: cell-based, human
[2] = tested on: H2N113 tumors; format: in vivo
[3] = tested on: Akt, MAPK, snail in MDA-MB-453 cells; test: Western blot of signaling and snail, MDA-MB-453; format: cell-based; details: 24 hours (FIG. 20B)
[4] = tested on: BT-474 cells; test: MTT cell viability assay, BT-474; format: cell-based; details: FIG. 43, FIG. 48
[5] = tested on: H2N113 cells; test: Cytotoxicity assay of spleen CD8+ T cells from treated mice; format: in vivo, mouse; details: suboptimal mAb and IFN-γ (FIG. 52)
[6] = tested on: MCF10A cells; test: MTT cell viability assay, MCF10A; format: cell-based; details: 8 days
[7] = tested on: SK-BR-3 cells; test: Soft agar growth (foci formation) assay, SK-BR-3; format: cell-based, human; details: 14 days in soft agar, ImageJ
[8] = tested on: PD-L1; test: PD-L1 expression in treated tumors; format: in vivo, mouse; details: FIG. 60A
Method: FIG. 60A-FIG. 60C. PD-L1 expression is increased in tumors treated with IFN-γ. FIG. 60A—Western blotting was performed with anti-PD-L1 antibody with the tumors from each indicated group of mice after treatment in the same way as FIG. 59A. FIG. 60B—FACS analysis of PD-L1 expression in tumor cells from control IgG and 7.16.4+IFN-γ treated mice. Tumor cells are gated as CD45-large size cells which we confirmed most of them are tumor cells by 7.16.4 antibody. **P<0.02. FIG. 60C—Administration of anti-PD-L1 antibody with the ordered therapy. Mice were treated with control PBS, 7.16.4 (1.5 mg/kg, three times per week) and anti-PDL1 (5 mg/kg, twice per week), 7.16.4 and IFN-γ ([…], three times per week), or the combination of IFN-γ, 7.16.4 and anti-PD-L1. Data represent mean+SEM.
This is also consistent with why IFN-γ alone is not useful for cancer therapy (Zaidi and Merlino, 2011). […] It is possible that PD-L1 acts as a negative immune regulator induced by IFN-γ treatment alone. […] To determine if PD-L1 can be further targeted for this ordered therapy, we used anti-PD-L1 antibody along with 7.16.4 and IFN-γ.

[9] = tested on: class I and class II MHC antigens in SKBR3 cells; test: MHC expression in SKBR3 cells by FACS; format: cell-based, human; details: FIG. 4
[10] = tested on: MDA-MB-231 cells; test: MTT cell viability assay, MDA-MB-231; format: cell-based; details: FIG. 43 / FIG. 55C
[11] = tested on: H2N113 (IFNγR KD) tumors; test: Implanted H2N113 (IFNγR KD) tumor growth in MMTV-neu mice; format: in vivo, mouse; details: suboptimal 7.16.4 1.5 mg/kg; IFN-γ 5×10^5 IU/kg (FIG. 33)
[12] = tested on: MDSC; test: In vitro MDSC migration assay (Transwell, H2N113 conditioned medium); format: cell-based, mouse; details: H2N113 treated 3 days (FIG. 9)
[13] = tested on: H2N113 (IFNγR KD) cells; test: IFN-γ response of H2N113 (IFNγR KD) cells in vitro; format: cell-based, mouse
[14] = inhibitor added during final 8 hours of two-day 4D5 and IFN-γ treatment

`CCN(CC)CCCC(C)Nc1ccnc2cc(Cl)ccc12` (stereo not shown) [chloroquine] was tested, and the “snail content under 4D5 and IFN-γ co-treatment” value (shortened to “snail content”) [1] was “increased snail content but was unable to rescue”.

For `CC(C)C[C@@H](C=O)NC(=O)[C@H](CC(C)C)NC(=O)[C@H](CC(C)C)NC(=O)OCc1ccccc1` [MG-132] (Cbz-Leu-Leu-Leu-aldehyde), the “slug content under 4D5 and IFN-γ co-treatment” value [1, 14] was “no change in slug content” and the “snail content” value [1, 14] was “inhibited the co-treatment-mediated reduction of snail in a dose-dependent manner”.

With `O.O=C(O)C(F)(F)F.O=c1[nH]c2ccccc2n1C1CCN(Cc2ccc(-c3nc4cc5[nH]cnc5cc4nc3-c3ccccc3)cc2)CC1` [Akt1/2 inhibitor] the snail protein level ([1]; Western blot) was “dose-dependent decrease in snail content”.

In the case of IFNα, the “anti-tumor activity of IFNα on its own” value ([2]; FIG. 7) is reported as “appears to have anti-tumor activity on its own” and the “enhancement of mAb 7.16.4 activity to suppress tumor growth” value ([2]; IFNα in combination with mAb 7.16.4 (FIG. 7)) is reported as “could not enhance mAb 7.16.4 activity”.

`CS(=O)(=O)CCNCc1ccc(-c2ccc3ncnc(Nc4ccc(OCc5cccc(F)c5)c(Cl)c4)c3c2)o1` [lapatinib, Lapatinib] was tested, and the Akt activity [3] was “diminished Akt activity in both cell lines”, the snail protein level [3] was “snail is reduced upon lapatinib treatment” and the Akt pathway activity ([1]; 24 hours (FIG. 20A, 20B)) was “inactivated; also recorded: diminished Akt activity in both cell lines”. The slug protein level ([1]; Western blot) was “not slug” and the snail protein level ([1]; Western blot) was “dose-dependent reduction in snail”.

For `CC/C(=C(\c1ccc(O)cc1)c1ccc(OCCN(C)C)cc1)c1ccccc1` [4-OH tamoxifen], the cell viability [4] was “reduced viability in the cIgG-treated cells; also recorded: complemented 4D5 treatment; also recorded: did not further sensitize the cells to IFN-γ in combination with 4D5”.

In the case of `Cc1c[nH]c(-c2cnc(NCCNc3ccc(C#N)cn3)nc2-c2ccc(Cl)cc2Cl)n1` [CHIR99021], the “slug content under 4D5 and IFN-γ co-treatment” value [1, 14] is reported as “no change in slug content” and the “snail content” value [1, 14] is reported as “dose-dependent rescue of snail”.

B1: IFN-γ: recombinant interferon-gamma (SEQ ID NO: 5) (protein)
chain: QDPYVKEAENLKKYFNAGHSDVADNGTLFLGILKNWKEESDRKIMQSQIVSFYFKLFKNFKDDQSIQKSVETIKEDMNVKFFNSNKKKRDDFEKLTNYSVTDLNVQRKAIHELIQVMAELSPAAKTGKRKRSQ
modifications: IFN-gamma
With B1 the “effector CD8+ T cell activity against H2N113 cells” value [5] was “negligible effects”, the cell viability [6] was “minimal changes to their viability” and the “percentage of foci greater than 20 pixels” value [7] was 52±8%. For the same molecule, the “percentage of foci less than 20 pixels” value [7] was 48±8%, the “PD-L1 expression in tumor tissues” value [8] was “dramatically induced PD-L1 expression” and the “class II MHC antigen expression” value [9] was “no effect”. The cell viability [10] was “did respond to IFN-γ alone”, the tumor growth [11] was “no effect on its own” and the “MDSC migration induced by H2N113 conditioned medium” value [12] was “no appreciable effects”. The tumor volumes ([2]; BALB/c mice, 7.16.4 1.5 mg/kg, IFN-γ 5×10^5 IU/kg (FIG. 26)) was “demonstrable effect”, the tumor growth ([2]; MMTV-neu mice, 7.16.4 1.5 mg/kg twice per week, IFN-γ 5×10^5 IU/kg three times per week (FIG. 1), 1.5 mg/kg) was “aggressive tumor growth; also recorded: failed to significantly inhibit tumor growth” and the “IFN-γ mediated growth suppression” value ([13]; 5 days, LDH activity (FIG. 32C)) was “resistant to IFN-γ mediated growth suppression”. The “IFN-γ induced MHC expression” value ([13]; FIG. 32B) was “diminished” and the GSK3-β activation ([1]; Western blot (FIG. 21A)) was “unable to do so”.
